# Source: PMC11239830, “Synthetic macrolides overcoming MLSBK-resistant pathogens” (Cell Discovery, 2024)
# Where two headings read alike, the source gives them in different places.
# Assays:
# S. pneumoniae = assay: MIC, broth microdilution; type: cell-based, Streptococcus pneumoniae
# In short: (§1)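 Incubation ran for 16–20 h at 37 °C after setup per Clinical and Laboratory Standards Institute microdilution procedure. Growth was then observed to assign the MIC. Assays were replicated at least three times.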
# S. pyogenes = assay: MIC, broth microdilution; type: cell-based, Streptococcus pyogenes
# In short: as §1
# S. aureus = assay: MIC, broth microdilution; type: cell-based, Staphylococcus aureus
# In short: as §1
# M. catarrhalis = assay: MIC, broth microdilution; type: cell-based, Moraxella catarrhalis; settings: Moraxella catarrhalis; M. catarrhalis 13L332, Ery-S; read-out: MIC
# In short: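 CLSI microdilution; 2-fold dilutions in CAMHB; inoculum 5 × 10^5 CFU/mL; 37 °C, 16–20 h; visual endpoint, no growth; n ≥ 3.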
# [1] = test system: 15B196 S. aureus ribosomes (A2058-methylated); assay: PURE in vitro translation inhibition assay; type: biochemical, Staphylococcus aureus; settings: mean ± SD
# Protocol: (§2) To validate the in vitro activity of our compounds, we employed an in vitro reconstituted E. coli Protein synthesis Using a Recombinant Elements (PURE) translation system, substituting E. coli ribosomes with the purified S. aureus ribosomes.
# (§3) 5 μL of PURE reaction mix that translates a gene encoding the Nanoluc luciferase was set up in the presence or absence of tested compounds. Protein synthesis was initiated by incubating reactions at 37 °C for 60 min and stopped by placing on ice for 5 min. Luciferase activity was quantified using the Nano-Glo luciferase assay system and read on a GloMax 20/20 luminometer (Promega, USA). For each compound, the in vitro translation inhibition assay was performed in three biological triplicates over a range of concentrations from 0.001 μM to 1000 μM. A compound-free control was used to normalize luminescence measurements. The calculated luminescence percentages were plotted against compound concentrations on a semilog scale using GraphPad Prism.
# WT S. aureus ribosomes = assay: PURE in vitro translation inhibition assay; type: biochemical, Staphylococcus aureus; settings: mean ± SD
# Protocol: as §2, §3
# [2] = CCK-8 assay for cytotoxicity; type: cell-based, human; settings: human, HepG2 cells; HepG2 cell viability, 48 h; read-out: CC50
# Protocol: (§4) HepG2 cells (6 × 10^3) and HEK293T cells (4 × 10^3) were seeded into 96-well plates in 90 μL of DMEM medium containing 10% FBS per well. All test compounds were formulated as 10 mM stock solutions in DMSO (final concentration ≤ 0.5%). After overnight incubation, the test compound stock solution was diluted with DMEM medium containing 10% FBS to every target concentration, and 10 μL of each was added to each well. Three parallel experiments were set up for each compound. After incubation for 48 h, 10 μL of cell counting kit-8 (CCK-8) reagent was added to each well in sequence according to the manufacturer’s instructions. After incubating in a 37 °C incubator for 1–2 h, the absorbance was measured at a wavelength of 450 nm, and detected by ThermoScientific Multiskan FC (ThermoFisher Scientific, USA). This experiment was independently repeated three times. The data were processed by GraphPad Prism.
# HepG2 cells = assay: CCK-8 assay for cytotoxicity; type: cell-based, human
# Protocol: as §4
# [3] = CCK-8 assay for cytotoxicity; type: cell-based, human; settings: human, HEK293T cells, HEK293T cell viability
# Protocol: as §4, with “All test compounds were formulated as 10 mM stock solutions in DMSO (final concentration ≤ 0.5%).” left out, “After incubating in a 37 °C incubator for 1–2 h, the absorbance was measured at a wavelength of 450 nm, and detected by ThermoScientific Multiskan FC (ThermoFisher Scientific, USA).” left out
# [4] = Staphylococcus aureus, MRSA, MRSA (13)
# [5] = Staphylococcus aureus, i-MLSB S. aureus (10)
smiles,measurement,setting,value
CC[C@H]1OC(=O)[C@H](C)[C@@H](OC(=O)NCCCOCCC#Cc2ccc3c(=O)c(C(=O)O)cn(C)c3c2)[C@H](C)[C@@H](O[C@@H]2O[C@H](C)C[C@H](N(C)C)[C@H]2O)[C@](C)(OC)C[C@@H](C)C(=O)[C@H](C)[C@H]2NC(=O)O[C@@]21C [MCX-190],MIC,"S. pneumoniae; S. pneumoniae 07P390, c-ermB, listed as 95g",0.06 µg/mL
same,MIC,"S. pneumoniae; S. pneumoniae 21C315, Clinical, c-ermB",0.12 µg/mL
same,MIC,"S. pneumoniae; S. pneumoniae 21D016, Clinical, c-ermB, mef",0.5 µg/mL
same,MIC,"S. pneumoniae; S. pneumoniae 21D020, Clinical, c-ermB, mef",0.25 µg/mL
same,MIC,"S. pneumoniae; S. pneumoniae 21M277, Clinical, c-ermB",0.5 µg/mL
same,MIC,"S. pneumoniae; S. pneumoniae 21Q352, Clinical, i-MLSB",0.25 µg/mL
same,MIC,"S. pneumoniae; S. pneumoniae 21Q353, Clinical, i-MLSB",0.25 µg/mL
same,MIC,"S. pneumoniae; S. pneumoniae 21W257, Clinical, c-ermB, mef",0.5 µg/mL
same,MIC,"S. pneumoniae; S. pneumoniae 21X435, Clinical",0.016 µg/mL
same,MIC,S. pneumoniae; S. pneumoniae ATCC49619,0.016 µg/mL
same,MIC,"S. pneumoniae; S. pneumoniae ATCC49619, Ery-S, listed as 95g",0.016 µg/mL
same,MIC,"S. pneumoniae; Streptococcus pneumoniae, ATCC49619, S. pneumoniae ATCC49619, Ery-S, read-out: MIC",0.03 µg/mL
same,MIC,"S. pneumoniae; Streptococcus pneumoniae, S. pneumoniae 05O173, c-ermB, mef, read-out: MIC",2 µg/mL
same,MIC,"S. pneumoniae; Streptococcus pneumoniae, S. pneumoniae 07P390, c-ermB, read-out: MIC",0.12 µg/mL
same,MIC,"S. pneumoniae; Streptococcus pneumoniae, S. pneumoniae PU09, mef, read-out: MIC",0.06 µg/mL
same,MIC,"S. pyogenes; S. pyogenes 01-968, Clinical, i-ermB",0.03 µg/mL
same,MIC,"S. pyogenes; S. pyogenes 12-207, Clinical, mef",0.5 µg/mL
same,MIC,"S. pyogenes; S. pyogenes 21C303, Clinical, c-ermB",1 µg/mL
same,MIC,"S. pyogenes; S. pyogenes 21D184, Clinical, c-ermB",1 µg/mL
same,MIC,"S. pyogenes; S. pyogenes 21D199, Clinical, c-ermB",1 µg/mL
same,MIC,"S. pyogenes; S. pyogenes 21D200, Clinical, c-ermB",0.5 µg/mL
same,MIC,"S. pyogenes; S. pyogenes 21K003, Clinical, mef",1 µg/mL
same,MIC,"S. pyogenes; S. pyogenes 21M063, Clinical, c-ermB",0.5 µg/mL
same,MIC,"S. pyogenes; S. pyogenes 21W186, Clinical, c-ermTR",2 µg/mL
same,MIC,"S. pyogenes; Streptococcus pyogenes, S. pyogenes 12-206, c-ermTR, read-out: MIC",0.12 µg/mL
same,MIC,"S. aureus; S. aureus 15B196, Clinical, MRSA, c-ermB",8 µg/mL
same,MIC,"S. aureus; S. aureus 21B200, Clinical, MRSA, c-ermB",8 µg/mL
same,MIC,"S. aureus; S. aureus 21B207, Clinical, MRSA, c-ermB",8 µg/mL
same,MIC,"S. aureus; S. aureus 21B212, Clinical, MSSA, i-ermC",0.25 µg/mL
same,MIC,"S. aureus; S. aureus 21C173, Clinical, MSSA, i-ermC",0.25 µg/mL
same,MIC,"S. aureus; S. aureus 21C174, Clinical, MSSA, c-ermB",1 µg/mL
same,MIC,"S. aureus; S. aureus 21C187, Clinical, MRSA, i-ermA",0.25 µg/mL
same,MIC,"S. aureus; S. aureus 21D112, Clinical, MSSA, c-ermB",64 µg/mL
same,MIC,"S. aureus; S. aureus 21D115, Clinical, MSSA, i-ermC",0.5 µg/mL
same,MIC,"S. aureus; S. aureus 21F198, Clinical, MRSA, c-ermB",8 µg/mL
same,MIC,"S. aureus; S. aureus 21F206, Clinical, MSSA, c-ermB",32 µg/mL
same,MIC,"S. aureus; S. aureus 21F207, Clinical, MRSA, i-ermC",0.25 µg/mL
same,MIC,"S. aureus; S. aureus 21K194, Clinical, MSSA, i-ermC",0.25 µg/mL
same,MIC,"S. aureus; S. aureus 21N354, Clinical, MRSA, c-ermB",8 µg/mL
same,MIC,"S. aureus; S. aureus 21P191, Clinical, MSSA, c-ermC",64 µg/mL
same,MIC,"S. aureus; S. aureus 21P404, Clinical, MSSA, i-ermC",0.5 µg/mL
same,MIC,"S. aureus; S. aureus 21P407, Clinical, MRSA, c-ermB",16 µg/mL
same,MIC,"S. aureus; S. aureus 21Q253, Clinical, MRSA, c-ermB",4 µg/mL
same,MIC,"S. aureus; S. aureus 21R216, Clinical, MSSA, c-ermC",64 µg/mL
same,MIC,"S. aureus; S. aureus 21T141, Clinical, MRSA, c-ermB",4 µg/mL
same,MIC,"S. aureus; S. aureus 21X388, Clinical, i-ermA (MRSA in Table S9, MSSA in Fig. 2a)",0.25 µg/mL
same,MIC,"S. aureus; S. aureus 21Y223, Clinical, MRSA, i-ermC",0.5 µg/mL
same,MIC,S. aureus; S. aureus ATCC29213,0.25 µg/mL
same,MIC,"S. aureus; S. aureus PU32, Clinical, MRSA, i-ermA",0.25 µg/mL
same,MIC50,"S. aureus; Staphylococcus aureus, All S. aureus (24)",1 µg/mL
same,MIC50,S. aureus; [4],4 µg/mL
same,MIC90,S. aureus; [4],8 µg/mL
same,MIC50,"S. aureus; Staphylococcus aureus, MSSA, MSSA (10)",0.5 µg/mL
same,MIC,"S. aureus; Staphylococcus aureus, S. aureus 15B196, c-ermB, read-out: MIC",8 µg/mL
same,MIC,"S. aureus; Staphylococcus aureus, S. aureus PU32, i-ermA, read-out: MIC",0.5 µg/mL
same,MIC50,"S. aureus; Staphylococcus aureus, c-MLSB (constitutive) S. aureus (13)",8 µg/mL
same,MIC90,"S. aureus; Staphylococcus aureus, c-MLSB S. aureus (13)",64 µg/mL
same,MIC50,S. aureus; [5],0.25 µg/mL
same,MIC90,S. aureus; [5],0.5 µg/mL
same,MIC90,"S. aureus; Staphylococcus aureus, MSSA (10)",64 µg/mL
same,MIC,M. catarrhalis,0.25 µg/mL
same,IC50,[1],460 ± 230 nM
same,IC50,WT S. aureus ribosomes,380 ± 100 nM
same,CC50 at 48 h,[2],> 200000 nM
same,cytotoxicity at 5 μM,"HepG2 cells; HepG2, 5 μM, 48 h",significantly reduced cytotoxicity compared to TcmX
same,CC50 (cytotoxicity),HepG2 cells; human HepG2 and HEK293T cells,essentially non-cytotoxic
same,CC50 at 48 h,[3],> 100000 nM
